Earlier results, collected in publication PMC7395068, “The evolution of strategies to minimise the risk of human drug-induced liver injury (DILI) in drug discovery and development” (Archives of Toxicology, 2020).
Where two headings read alike, the source gives them in different places.

Columns and labels:
[1] = system: HepG2 C3A spheroid, BSEP, Glu/Gal in HepG2 cells, bioactivation; conditions: cited from earlier work
[2] = cited from earlier work
HepG2 cells [3] = conditions: In vitro Assay; ref O'Brien 2006; cited from earlier work
[4] = ref Chen 2016; cited from earlier work
[5] = system: primary human hepatocytes, NIH3T3 fibroblasts, BSEP, CYP3A4; conditions: cited from earlier work
HepG2 cells [6] = conditions: cited from earlier work; for Cluser analysis / Structural based (HCI): In vitro Assay, ref Persson 2013
PHH = conditions: In vitro Assay; ref Proctor 2017; cited from earlier work
hLiMTs = conditions: In vitro Assay; ref Proctor 2017; cited from earlier work
[7] = system: THLE-Null and THLE-3A4 cells; conditions: In vitro Assay; ref Gustafsson 2014; cited from earlier work
[8] = system: THLE or HepG2 cells, isolated mitochondria, BSEP; conditions: cited from earlier work
rBsep = conditions: In vitro Assay; ref Dawson 2012; cited from earlier work
[9] = system: HepG2 cells, primary human hepatocytes; conditions: cited from earlier work
PHH spheroids = conditions: In vitro Assay; ref Vorrink 2018; cited from earlier work
human hepatocytes = conditions: cited from earlier work
[10] = In vitro Assay, ref Williams 2019
[11] = In vitro Assay, ref Schadt 2015
[12] = In vitro Assay, ref Garside 2014

CCC(C)n1ncn(-c2ccc(N3CCN(c4ccc(OCC5COC(Cn6cncn6)(c6ccc(Cl)cc6Cl)O5)cc4)CC3)cc2)c1=O (centres unmarked) [itraconazole]
Bayesian Machine Learning [1, 10]: +VE | In vivo DILI ([2]; ref O'Brien 2006): +VE | In vivo DILI ([2]; ref Persson 2013): +VE | In vivo DILI ([2]; ref Proctor 2017): +VE | In vivo DILI ([2]; ref Schadt 2015): +VE | In vivo DILI ([2]; ref Williams 2019): +VE | Structural based (HCI) (HepG2 cells [3]): +VE | DILI +VE (5-8), DILI -VE (-4) [4]: +VE | DILI severity category [4]: vMost-DILI-Concern | Cellular toxicity (3T3 cells) [5, 11]: -VE | Combined Assay [5, 11]: +VE | GSH adduct HML [5, 11]: -VE | Hepatocyte cellular toxicity [5, 11]: -VE | MitoTox 3T3 [5, 11]: +VE | TDI CYP3A4 [5, 11]: -VE | hBSEP inhibition [5, 11]: -VE | Cluser analysis (HepG2 cells [6]): +VE | Structural based (HCI) (HepG2 cells [6]): +VE | PHH ATP <100uM (PHH): -VE | hLiMTs ATP <100uM (hLiMTs): +VE (IC50 threshold of 100 µM)

Nc1c(CC(=O)O)cccc1C(=O)c1ccc(Br)cc1 [bromfenac, reference compound]
Bayesian Machine Learning [1, 10]: +VE | In vivo DILI ([2]; […]): +VE | In vivo DILI ([2]; ref Aleo 2019): +VE | In vivo DILI ([2]; ref Gustafsson 2014): +VE | In vivo DILI ([2]; ref Persson 2013): +VE | In vivo DILI ([2]; ref Schadt 2015): +VE | In vivo DILI ([2]; ref Williams 2019): +VE | DILI +VE (5-8), DILI -VE (-4) [4]: +VE | DILI severity category [4]: vMost-DILI-Concern | THLE-Null [7]: -VE | THLE-Null/3A4 [7]: -VE | Cellular toxicity (3T3 cells) [5, 11]: -VE | Combined Assay [5, 11]: -VE | GSH adduct HML [5, 11]: -VE | Hepatocyte cellular toxicity [5, 11]: -VE | MitoTox 3T3 [5, 11]: -VE | TDI CYP3A4 [5, 11]: -VE | hBSEP inhibition [5, 11]: -VE | Cluser analysis (HepG2 cells [6]): -VE | Structural based (HCI) (HepG2 cells [6]): -VE | DILI in vitro assay prediction, Persson (2013) (HepG2 cells [6]; Structural based (HCI), HepG2, ref Persson et al. 2013): negative | Partition Hybrid HRM Score ([8]; In vitro Assay, ref Aleo 2019): +VE | Ro2 Hybrid HRM Score ([8]; In vitro Assay, ref Aleo 2019): +VE

O=C(O)Cc1csc(-c2ccc(Cl)cc2)n1 [fenclozic acid]
Bayesian Machine Learning [1, 10]: +VE | In vivo DILI ([2]; ref Dawson 2012): +VE | In vivo DILI ([2]; ref Garside 2014): +VE | In vivo DILI ([2]; ref Gustafsson 2014): +VE | In vivo DILI ([2]; ref Williams 2019): +VE | DILI +VE (5-8), DILI -VE (-4) [4]: +VE | DILI severity category [4]: vMost-DILI-Concern | THLE-Null [7]: -VE | THLE-Null/3A4 [7]: -VE | Inhibition of rBsep cutoff<1& cmax u>.2 (rBsep): -VE | Inhibition of rBsep cutoff<3 (rBsep): -VE | Cluster 1-6 +VE Assay [9, 12]: +VE

Cc1onc(-c2c(F)cccc2Cl)c1C(=O)N[C@@H]1C(=O)N2[C@@H]1SC(C)(C)[C@@H]2C(=O)O [flucloxacillin]
Bayesian Machine Learning [1, 10]: +VE | In vivo DILI ([2]; ref Dawson 2012): +VE | In vivo DILI ([2]; ref Gustafsson 2014): +VE | In vivo DILI ([2]; ref Proctor 2017): +VE | In vivo DILI ([2]; ref Williams 2019): +VE | THLE-Null [7]: -VE | THLE-Null/3A4 [7]: -VE | Inhibition of rBsep cutoff<1& cmax u>.2 (rBsep): -VE | Inhibition of rBsep cutoff<3 (rBsep): -VE | PHH ATP <100uM (PHH): +VE (IC50 threshold of 100 µM) | hLiMTs ATP <100uM (hLiMTs): -VE

CC(C(=O)O)c1ccc(C(=O)c2cccs2)cc1 (centres unmarked) [suprofen]
Bayesian Machine Learning ([1]; ref Williams 2019): +VE | In vivo DILI ([2]; ref Garside 2014): +VE | In vivo DILI ([2]; ref Gustafsson 2014): +VE | In vivo DILI ([2]; ref Williams 2019): +VE | THLE-Null [7]: -VE | THLE-Null/3A4 [7]: -VE | Cluster 1-6 +VE Assay [9, 12]: -VE

COC(=O)C1=C(C)NC(C)=C(C(=O)OCCN(C)Cc2ccccc2)C1c1cccc([N+](=O)[O-])c1 (centres unmarked) [nicardipine]
Bayesian Machine Learning [1, 10]: -VE | hLiMTs ATP <20 x Cmax (PHH spheroids): -VE

N[C@@H]1CON=C1O [cycloserine]
Bayesian Machine Learning [1, 10]: -VE | THLE-Null [7]: -VE | Inhibition of rBsep cutoff<1& cmax u>.2 (rBsep): -VE | Inhibition of rBsep cutoff<3 (rBsep): -VE

Cc1cc(CC(=O)O)n(C)c1C(=O)c1ccc(Cl)cc1 [zomepirac]
Bayesian Machine Learning [1, 10]: +VE | In vivo DILI ([2]; […]): +VE | In vivo DILI ([2]; ref Gustafsson 2014): -VE | In vivo DILI ([2]; ref O'Brien 2006): -VE | In vivo DILI ([2]; ref Proctor 2017): -VE | In vivo DILI ([2]; ref Schadt 2015): +VE | In vivo DILI ([2]; ref Williams 2019): -VE | In vivo DILI ([2]; ref Xu 2008): -VE | Structural based (HCI) (HepG2 cells [3]): +VE | THLE-Null [7]: -VE | THLE-Null/3A4 [7]: -VE | Cellular toxicity (3T3 cells) [5, 11]: -VE | Combined Assay [5, 11]: +VE | GSH adduct HML [5, 11]: +VE | Hepatocyte cellular toxicity [5, 11]: -VE | MitoTox 3T3 [5, 11]: -VE | TDI CYP3A4 [5, 11]: -VE | hBSEP inhibition [5, 11]: -VE | Structural based (HCI) (human hepatocytes; In vitro Assay, ref Xu 2008): -VE | PHH ATP <100uM (PHH): -VE | hLiMTs ATP <100uM (hLiMTs): -VE

O=c1[nH]c2ccccc2n1C1CCN(CCCC(c2ccc(F)cc2)c2ccc(F)cc2)CC1 [pimozide]
Bayesian Machine Learning ([1]; ref Williams 2019): +VE | In vivo DILI ([2]; ref O'Brien 2006): -VE | In vivo DILI ([2]; ref Proctor 2017): +VE | In vivo DILI ([2]; ref Williams 2019): +VE | Structural based (HCI) (HepG2 cells [3]): -VE | DILI +VE (5-8), DILI -VE (-4) [4]: -VE | DILI severity category [4]: vNo-DILI-Concern | PHH ATP <100uM (PHH): -VE | hLiMTs ATP <100uM (hLiMTs): +VE (IC50 threshold of 100 µM)

O=C(O)COc1ccc(C(=O)c2cccs2)c(Cl)c1Cl [tienilic acid]
Bayesian Machine Learning [1, 10]: +VE | In vivo DILI ([2]; […]): +VE | In vivo DILI ([2]; ref Garside 2014): +VE | In vivo DILI ([2]; ref Proctor 2017): +VE | In vivo DILI ([2]; ref Williams 2019): +VE | DILI +VE (5-8), DILI -VE (-4) [4]: +VE | DILI severity category [4]: vMost-DILI-Concern | PHH ATP <100uM (PHH): -VE | Cluster 1-6 +VE Assay [9, 12]: +VE | hLiMTs ATP <100uM (hLiMTs): -VE

Cc1ccc(C(=O)c2ccc(CC(=O)O)n2C)cc1 [tolmetin]
Bayesian Machine Learning [1, 10]: +VE | In vivo DILI ([2]; ref Garside 2014): +VE | In vivo DILI ([2]; ref Gustafsson 2014): +VE | In vivo DILI ([2]; ref Williams 2019): +VE | In vivo DILI ([2]; ref Xu 2008): +VE | DILI +VE (5-8), DILI -VE (-4) [4]: +VE | DILI severity category [4]: vLess-DILI-Concern | THLE-Null [7]: -VE | THLE-Null/3A4 [7]: -VE | Structural based (HCI) (human hepatocytes; In vitro Assay, ref Xu 2008): +VE | Cluster 1-6 +VE Assay [9, 12]: +VE

Cc1c(C(=O)NN2CCCCC2)nn(-c2ccc(Cl)cc2Cl)c1-c1ccc(Cl)cc1 [rimonabant]
Bayesian Machine Learning ([1]; ref Williams 2019): +VE | In vivo DILI ([2]; ref Gustafsson 2014): -VE | In vivo DILI ([2]; ref Williams 2019): -VE | THLE-Null [7]: +VE | THLE-Null/3A4 [7]: +VE

CC(=O)CC(c1ccccc1)c1c(O)c2ccccc2oc1=O (centres unmarked) [warfarin]
Bayesian Machine Learning [1]: +VE | Cellular toxicity (3T3 cells) [5]: -VE | Combined Assay [5]: -VE | GSH adduct HML [5]: -VE | Hepatocyte cellular toxicity [5]: -VE | MitoTox 3T3 [5]: -VE | TDI CYP3A4 [5]: -VE | hBSEP inhibition [5]: -VE | Structural based (HCI) (human hepatocytes): -VE | Partition Hybrid HRM Score [8]: +VE | Ro2 Hybrid HRM Score [8]: -VE | Cluster 1-6 +VE Assay [9]: -VE

CN1[C@@H]2CC[C@H]1C[C@@H](OC(c1ccccc1)c1ccccc1)C2 [benztropine]
Bayesian Machine Learning ([1]; ref Williams 2019): -VE | In vivo DILI ([2]; ref Aleo 2019): -VE | In vivo DILI ([2]; ref Proctor 2017): -VE | In vivo DILI ([2]; ref Williams 2019): -VE | DILI +VE (5-8), DILI -VE (-4) [4]: -VE | DILI severity category [4]: vNo-DILI-Concern | PHH ATP <100uM (PHH): +VE (IC50 threshold of 100 µM) | Ro2 Hybrid HRM Score ([8]; In vitro Assay, ref Aleo 2019): -VE | hLiMTs ATP <100uM (hLiMTs): +VE (IC50 threshold of 100 µM)

Cc1cc2c(cc1CC(=O)c1sccc1S(=O)(=O)Nc1onc(C)c1Cl)OCO2 [sitaxentan]
Bayesian Machine Learning [1, 10]: +VE | In vivo DILI ([2]; ref Aleo 2019): +VE | In vivo DILI ([2]; ref Proctor 2017): +VE | In vivo DILI ([2]; ref Schadt 2015): +VE | In vivo DILI ([2]; ref Williams 2019): +VE | DILI +VE (5-8), DILI -VE (-4) [4]: +VE | DILI severity category [4]: vMost-DILI-Concern | Cellular toxicity (3T3 cells) [5, 11]: -VE | Combined Assay [5, 11]: +VE | GSH adduct HML [5, 11]: +VE | Hepatocyte cellular toxicity [5, 11]: +VE | MitoTox 3T3 [5, 11]: -VE | TDI CYP3A4 [5, 11]: +VE | hBSEP inhibition [5, 11]: +VE | PHH ATP <100uM (PHH): -VE | Partition Hybrid HRM Score ([8]; In vitro Assay, ref Aleo 2019): +VE | Ro2 Hybrid HRM Score ([8]; In vitro Assay, ref Aleo 2019): +VE | hLiMTs ATP <100uM (hLiMTs): -VE

CN(C)CCCN1c2ccccc2CCc2ccc(Cl)cc21 [clomipramine]
Bayesian Machine Learning [1, 10]: +VE | Structural based (HCI) (human hepatocytes; In vitro Assay, ref Xu 2008): -VE | Cluster 1-6 +VE Assay [9, 12]: +VE

CC(C)Cc1ccc(CC(=O)O)cc1 [ibufenac]
Bayesian Machine Learning [1, 10]: +VE | In vivo DILI ([2]; ref Garside 2014): +VE | In vivo DILI ([2]; ref Schadt 2015): +VE | In vivo DILI ([2]; ref Williams 2019): +VE | DILI +VE (5-8), DILI -VE (-4) [4]: +VE | DILI severity category [4]: vMost-DILI-Concern | Cellular toxicity (3T3 cells) [5, 11]: -VE | Combined Assay [5, 11]: +VE | GSH adduct HML [5, 11]: +VE | Hepatocyte cellular toxicity [5, 11]: -VE | MitoTox 3T3 [5, 11]: -VE | TDI CYP3A4 [5, 11]: -VE | hBSEP inhibition [5, 11]: -VE | Cluster 1-6 +VE Assay [9, 12]: +VE
